In assay [1] the test system is HT1080 human fibrosarcoma. To be noted: 100 mg/kg; HT1080 xenograft in nude mice; cited from earlier work.
The test system of assay [2] is human colon carcinoma xenografts. To be noted: 100 mg/kg; human colon carcinoma xenograft in nude mice; cited from earlier work.
Assay [3] has as its system EJ-1 human bladder carcinoma. To be noted: 100 mg/kg; EJ-1 xenograft in nude mice; cited from earlier work.
Assay [4] deals with human lung carcinoma with K-ras mutation and p53 deletion. To be noted: nude mice; cited from earlier work.
Assay [5] relates to mammary and salivary carcinomas. To be noted: daily administration; ras transgenic mice; cited from earlier work.
Assay [6] relates to hepatocellular, pancreatic, and central nervous system tumors. To be noted: in vitro and in animal models; cited from earlier work.
Another assay relates to Panc-1. The assay can be described thus: cells. To be noted: Homo sapiens, PANC-1, 72 h, read-out: IC50 (concentration at which growth (cell#) is reduced by 50%). The procedure:
(§1) A proliferation assay was performed to ascertain the toxicity of a combination of a famesyl protein transferase and lovastatin at various concentrations to a number of cancerous cell lines. The assay was also performed to ascertain the toxicity of the farnesyl protein transferase alone as a comparison against the combination.
(§2) Cell lines (Panc-1, Colon26, HT-29 Colon, H460 Lung, H-ras NIH 3T3 fibroblast, P388/ADR leukemia, and P388/S leukemia) were set up at various starting concentrations in 24- or 12-well dishes. Suspension cells were treated immediately; attached monolayer cells were allowed to attach for 24 hours prior to treatment. The cells were treated in one series of tests with lovastatin and solvent (DMSO); in another series of tests with a combination of lovastatin, solvent (DMSO) and the farnesyltransferase inhibitor, (S)-[1-{(4-benzyloxy-benzyl)-[(2-methyl-2-phenyl-propyl carbamoyl)-methyl]-carbamoyl}-2-(3H1-imidazol-4-yl)-ethyl]-carbamic acid benzyl ester (Compound A); and in a third series of cells were treated with only the farnesyltransferase inhibitor. After 72 hours of treatment, the cells (growing in 1 mL of medium) are trypsinized with warm (37 degrees celsius) trypsin-EDTA (0.5 mL for 1-2 minutes), agitated, rescued with 0.5 mL of warm (37) medium, then diluted in […] Isoton (isotonic saline) for a final volume of 10 mL, 0.5 mL are then counted on a Coulter cell counter.
(§3) The data for lovastatin treatment alone is relative to the DMSO-treated controls; the data for combination treatment is relative to the PFT inhibitor treatment alone samples.

In another assay the test system is Colon26. The assay can be described thus: cells. To be noted: Mus musculus, Colon 26, 72 h, read-out: IC50 (concentration at which growth (cell#) is reduced by 50%). The procedure: as §1, §2, §3
The test system of a further assay is P388/ADR leukemia. The assay can be described thus: cells. To be noted: Mus musculus, 72 h, read-out: IC50 (concentration at which growth (cell#) is reduced by 50%). The procedure:
as §1, §2, §3

For a further assay, the system named is H-ras NIH 3T3 fibroblast. The assay can be described thus: cells. To be noted: Mus musculus, NIH3T3, 72 h, read-out: IC50 (concentration at which growth (cell#) is reduced by 50%). The procedure:
as §1, §2, §3

The test system of a further assay is HT-29 Colon. Kind of assay: cells. To be noted: Homo sapiens, HT-29, 72 h, read-out: IC50 (concentration at which growth (cell#) is reduced by 50%). The procedure:
as §1, §2, §3

The test system of a further assay is P388/S leukemia. Kind of assay: cells. To be noted: Mus musculus, 72 h, read-out: IC50 (concentration at which growth (cell#) is reduced by 50%). The procedure: as §1, §2, §3
The next assay relates to H460 Lung. Kind of assay: cells. To be noted: Homo sapiens, NCI-H460, 72 h, read-out: IC50 (concentration at which growth (cell#) is reduced by 50%). The procedure: as §1, §2, §3

As to `COC(=O)[C@H](CCSC)NC(=O)[C@H](/C=C\[C@@H](/C=C/[C@@H](N)CS)C(C)C)Cc1ccccc1` [B 1086], the tumor growth entry in [1], in assay [2] and in [3] was “inhibit tumor growth” in each case.
Take `CSCC[C@H](NC(=O)c1ccc(NC[C@@H](N)CS)cc1-c1ccccc1)C(=O)O` [FT1276]: the tumor growth entry in assay [4] is listed as “selectively block tumor growth”.
In the case of `CC[C@H](C)[C@@H](CO[C@@H](Cc1ccccc1)C(=O)N[C@@H](CCS(C)(=O)=O)C(=O)OC(C)C)NC[C@@H](N)CS` [L-744,832], in assay [5], the tumor regression entry is “caused tumor regression”.
Regarding `CC[C@H](C)C(=O)O[C@H]1C[C@@H](C)C=C2C=C[C@H](C)[C@H](CC[C@@H]3C[C@@H](O)CC(=O)O3)[C@H]21` [Lovastatin, lovastatin], the tumor growth result in assay [6] is recorded as “selectively inhibited tumor growth”. Further, the IC50 with Panc-1 worked out at 18.8 µM; in the assay with Colon26, 1.2 µM; with P388/ADR leukemia, 10.7 µM; in the assay with H-ras NIH 3T3 fibroblast, 17.4 µM; with HT-29 Colon, 11.4 µM; with P388/S leukemia it was 4 µM. Also, the IC50 in the assay with H460 Lung came to 5.5 µM.
